# Laboratory results published in article PMC5837865 (Clinical cancer research : an official journal of the …, 2017).
# pIC50: −log10 of the molar value. Like-named read-outs stand apart in the source and are kept apart here.
# Key:
# [1] = system: DU145 xenografts; experiment: DU145 prostate cancer xenograft tumor growth; format: in vivo, athymic male BALB/c mice
# [2] = Acute oral toxicity; format: in vivo, Sprague-Dawley (SD) rats
# [3] = system: PC-3 cells; experiment: Intracellular glucose and glutamine levels in cultured cells; format: cell-based, human; conditions: PC-3, 2 mg/ml, 48h
# [4] = molecular target: CYP3A4 (Homo sapiens, UniProt P08684); experiment: Cytochrome P450 inhibition; format: biochemical; conditions: read-out: IC50 CYP3A4
# Sequence of CYP3A4 (P08684 whole entry): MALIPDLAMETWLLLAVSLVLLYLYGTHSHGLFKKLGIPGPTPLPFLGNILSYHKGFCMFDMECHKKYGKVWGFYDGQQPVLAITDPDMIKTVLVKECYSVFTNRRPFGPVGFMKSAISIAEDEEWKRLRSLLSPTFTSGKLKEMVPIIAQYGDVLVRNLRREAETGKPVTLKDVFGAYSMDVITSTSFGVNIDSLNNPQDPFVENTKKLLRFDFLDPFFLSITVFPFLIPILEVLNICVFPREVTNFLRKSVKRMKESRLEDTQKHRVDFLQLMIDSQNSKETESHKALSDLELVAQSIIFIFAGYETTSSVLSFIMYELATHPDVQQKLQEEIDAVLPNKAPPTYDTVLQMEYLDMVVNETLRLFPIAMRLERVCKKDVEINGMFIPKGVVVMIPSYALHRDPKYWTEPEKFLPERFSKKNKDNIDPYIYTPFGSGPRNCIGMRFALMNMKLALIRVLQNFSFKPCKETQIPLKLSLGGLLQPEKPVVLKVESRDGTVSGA
# [5] = system: PC-3 cells; experiment: Annexin-V flow cytometry; format: cell-based, human; conditions: control ~8%
# [6] = system: PC-3-luc tumors; experiment: Glucose and glutamine levels in tumors by LC-MS/MS; format: in vivo, athymic male BALB/c mice; conditions: 40 mg/kg Etn-treated PC-3-luc tumors
# [7] = system: PC-3, DU145 and C42B cells; experiment: MTT cell survival, prostate cancer lines; format: cell-based, human; conditions: 0.5 mg/ml, 48h, pH 7.4; range over PC-3, DU145 and C42B
# [8] = system: p53 transcript; experiment: RT-PCR transcript levels; format: cell-based, human; conditions: PC-3, 2 mg/ml, 48h
# [9] = molecular target: CYP2E1 (Homo sapiens, UniProt P05181); experiment: Cytochrome P450 inhibition; format: biochemical; conditions: read-out: IC50 CYP2E1
# Sequence of CYP2E1 (P05181 whole entry): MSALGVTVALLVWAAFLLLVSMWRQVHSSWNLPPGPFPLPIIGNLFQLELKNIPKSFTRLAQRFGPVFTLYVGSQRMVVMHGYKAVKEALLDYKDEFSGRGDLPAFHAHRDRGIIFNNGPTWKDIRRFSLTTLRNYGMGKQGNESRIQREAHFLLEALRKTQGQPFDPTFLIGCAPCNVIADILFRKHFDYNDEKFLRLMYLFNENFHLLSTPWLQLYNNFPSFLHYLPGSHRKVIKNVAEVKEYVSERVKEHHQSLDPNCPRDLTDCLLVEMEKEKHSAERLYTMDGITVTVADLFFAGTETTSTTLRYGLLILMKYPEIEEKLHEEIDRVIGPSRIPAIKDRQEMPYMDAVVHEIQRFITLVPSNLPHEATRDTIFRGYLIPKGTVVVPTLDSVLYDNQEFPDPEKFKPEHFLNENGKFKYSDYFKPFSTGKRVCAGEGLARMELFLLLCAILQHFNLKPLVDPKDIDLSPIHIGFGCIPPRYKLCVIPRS
# [10] = molecular target: CYP2C19 (Homo sapiens, UniProt P33261); experiment: Cytochrome P450 inhibition; format: biochemical; conditions: read-out: IC50 CYP2C19
# Sequence of CYP2C19 (P33261 whole entry): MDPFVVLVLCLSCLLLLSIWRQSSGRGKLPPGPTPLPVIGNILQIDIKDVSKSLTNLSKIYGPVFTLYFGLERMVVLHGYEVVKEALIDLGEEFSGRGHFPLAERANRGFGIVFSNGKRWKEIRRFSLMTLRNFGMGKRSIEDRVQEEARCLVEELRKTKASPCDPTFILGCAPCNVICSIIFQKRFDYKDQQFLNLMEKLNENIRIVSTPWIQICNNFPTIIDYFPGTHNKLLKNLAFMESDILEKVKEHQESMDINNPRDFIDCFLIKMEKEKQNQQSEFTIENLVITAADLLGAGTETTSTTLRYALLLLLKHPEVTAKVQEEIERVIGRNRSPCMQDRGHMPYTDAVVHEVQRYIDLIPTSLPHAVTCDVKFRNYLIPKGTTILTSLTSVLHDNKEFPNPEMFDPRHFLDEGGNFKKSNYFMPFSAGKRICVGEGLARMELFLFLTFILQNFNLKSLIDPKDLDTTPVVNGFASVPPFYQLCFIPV
# [11] = system: PC-3-luc xenografts; experiment: PC-3-luc prostate cancer xenograft tumor growth; format: in vivo, athymic male BALB/c mice
# [12] = molecular target: CYP2B6 (Homo sapiens, UniProt P20813); experiment: Cytochrome P450 inhibition; format: biochemical; conditions: read-out: IC50 CYP2B6
# Sequence of CYP2B6 (P20813 whole entry): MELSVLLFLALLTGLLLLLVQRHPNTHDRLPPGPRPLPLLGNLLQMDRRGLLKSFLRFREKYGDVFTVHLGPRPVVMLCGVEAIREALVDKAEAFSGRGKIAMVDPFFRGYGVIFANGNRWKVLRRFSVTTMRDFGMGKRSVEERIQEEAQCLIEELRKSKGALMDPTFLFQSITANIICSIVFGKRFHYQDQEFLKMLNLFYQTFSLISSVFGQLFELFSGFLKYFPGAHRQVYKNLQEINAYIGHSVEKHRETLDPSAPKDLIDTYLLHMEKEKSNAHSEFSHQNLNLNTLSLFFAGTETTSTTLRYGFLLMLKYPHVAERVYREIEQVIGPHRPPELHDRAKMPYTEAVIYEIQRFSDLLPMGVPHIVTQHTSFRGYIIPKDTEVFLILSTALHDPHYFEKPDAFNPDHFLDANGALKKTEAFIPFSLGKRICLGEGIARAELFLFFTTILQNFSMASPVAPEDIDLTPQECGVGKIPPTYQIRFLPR
# [13] = Stability in simulated gastric fluid; format: in vitro ADME; conditions: 10 µM, SGF pH 1.2, over 1h, LC-MS/MS
# [14] = molecular target: CYP2C8 (Homo sapiens, UniProt P10632); experiment: Cytochrome P450 inhibition; format: biochemical; conditions: read-out: IC50 CYP2C8
# Sequence of CYP2C8 (P10632 whole entry): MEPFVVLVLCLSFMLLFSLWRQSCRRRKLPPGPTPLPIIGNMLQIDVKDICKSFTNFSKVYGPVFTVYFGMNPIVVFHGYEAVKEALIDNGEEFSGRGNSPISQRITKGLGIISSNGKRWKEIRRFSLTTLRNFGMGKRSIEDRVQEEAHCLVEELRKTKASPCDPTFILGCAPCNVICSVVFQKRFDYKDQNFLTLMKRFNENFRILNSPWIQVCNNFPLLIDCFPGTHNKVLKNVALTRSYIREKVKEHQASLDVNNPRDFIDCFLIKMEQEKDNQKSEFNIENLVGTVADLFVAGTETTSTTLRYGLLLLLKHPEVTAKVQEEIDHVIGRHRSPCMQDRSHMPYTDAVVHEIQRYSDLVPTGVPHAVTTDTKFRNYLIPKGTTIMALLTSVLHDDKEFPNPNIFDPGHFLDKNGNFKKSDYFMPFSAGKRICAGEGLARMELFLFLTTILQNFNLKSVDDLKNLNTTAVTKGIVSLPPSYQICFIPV
# [15] = system: PC-3 cells; experiment: Oxygen consumption rate; format: cell-based, human; conditions: PC-3, 2 mg/ml, 48h, 1 million cells/ml
# [16] = system: Ki67; experiment: Ki67 immunohistochemistry of tumor sections; format: in vivo, athymic male BALB/c mice; conditions: PC-3-luc xenografts, 40 mg/kg; control tumors ~62%
# [17] = system: PC-3 cells; experiment: Clonogenic; format: cell-based, human; conditions: 2 mg/ml, PC-3, pH 7.4
# [18] = Stability in simulated intestinal fluid; format: in vitro ADME; conditions: 10 µM
# [19] = system: HCT116 xenograft; experiment: HCT116 colon cancer xenograft tumor growth; format: in vivo, mice; conditions: 2 weeks
# [20] = system: PC-3 cells; experiment: MTT cell proliferation assay; format: cell-based, human; conditions: pH 7.4
# [21] = format: in vivo, BALB/c mice; conditions: for Cmax / time to reach peak plasma concentration: plasma, label = analyte measured
# [22] = system: PC-3 cells; experiment: Intracellular levels of PhosE and Etn by LC-MS/MS; format: cell-based, human; conditions: PC-3, 1 mg/ml treatment, 48h, pH 7.4
# [23] = system: CK KD PC-3 cells; experiment: MTT cell survival in choline kinase knockdown cells; format: cell-based, human; conditions: 0.5 mg/ml, CK KD (siRNA) PC-3 cells, 48h
# [24] = system: OVCAR-3; experiment: MTT cell proliferation assay; format: cell-based; conditions: OVCAR-3 (ovary)
# [25] = molecular target: CYP2A6 (Homo sapiens, UniProt P11509); experiment: Cytochrome P450 inhibition; format: biochemical; conditions: read-out: IC50 CYP2A6
# Sequence of CYP2A6 (P11509 whole entry): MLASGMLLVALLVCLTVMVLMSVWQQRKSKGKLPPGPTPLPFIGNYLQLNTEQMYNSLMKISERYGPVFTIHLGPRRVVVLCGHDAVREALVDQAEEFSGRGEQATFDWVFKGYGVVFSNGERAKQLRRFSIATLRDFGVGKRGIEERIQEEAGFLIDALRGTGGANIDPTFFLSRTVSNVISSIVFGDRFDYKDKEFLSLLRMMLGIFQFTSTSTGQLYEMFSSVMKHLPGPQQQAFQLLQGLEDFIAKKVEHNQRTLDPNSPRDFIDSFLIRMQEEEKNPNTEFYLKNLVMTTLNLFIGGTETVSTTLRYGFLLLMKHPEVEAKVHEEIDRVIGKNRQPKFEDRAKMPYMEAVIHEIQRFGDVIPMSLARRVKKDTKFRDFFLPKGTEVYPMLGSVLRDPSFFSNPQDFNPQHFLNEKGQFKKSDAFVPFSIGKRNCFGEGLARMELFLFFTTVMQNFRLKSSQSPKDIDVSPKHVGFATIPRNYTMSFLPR
# [26] = system: HIF1-α transcripts; experiment: RT-PCR transcript levels; format: cell-based, human; conditions: PC-3, 2 mg/ml, 48h
# [27] = system: HIF1-α; experiment: HIF1-α protein expression in tumors; format: in vivo, athymic male BALB/c mice; conditions: PC-3-luc xenografts, Etn-treated
# [28] = molecular target: CYP1A2 (Homo sapiens, UniProt P05177); experiment: Cytochrome P450 inhibition; format: biochemical
# Sequence of CYP1A2 (P05177 whole entry): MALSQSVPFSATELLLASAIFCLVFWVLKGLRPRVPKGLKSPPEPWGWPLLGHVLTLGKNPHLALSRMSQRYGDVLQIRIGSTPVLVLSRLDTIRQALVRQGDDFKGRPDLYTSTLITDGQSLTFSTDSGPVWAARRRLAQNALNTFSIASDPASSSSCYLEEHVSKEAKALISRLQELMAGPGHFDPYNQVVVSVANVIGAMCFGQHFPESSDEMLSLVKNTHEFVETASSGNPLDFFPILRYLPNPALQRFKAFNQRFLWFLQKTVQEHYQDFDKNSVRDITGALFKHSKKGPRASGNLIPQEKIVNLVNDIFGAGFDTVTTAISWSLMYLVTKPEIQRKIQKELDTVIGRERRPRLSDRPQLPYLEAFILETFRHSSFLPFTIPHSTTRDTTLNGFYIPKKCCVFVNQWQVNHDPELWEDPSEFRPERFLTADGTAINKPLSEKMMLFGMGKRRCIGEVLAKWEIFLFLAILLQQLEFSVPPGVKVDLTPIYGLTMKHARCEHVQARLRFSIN
# [29] = Etn absorption from formulations of different pH/acid; format: in vivo; conditions: pH 5/7.4; H3PO4/HCl/H2SO4
# [30] = molecular target: CYP2C9 (Homo sapiens, UniProt P11712); experiment: Cytochrome P450 inhibition; format: biochemical; conditions: read-out: IC50 CYP2C9
# Sequence of CYP2C9 (P11712 whole entry): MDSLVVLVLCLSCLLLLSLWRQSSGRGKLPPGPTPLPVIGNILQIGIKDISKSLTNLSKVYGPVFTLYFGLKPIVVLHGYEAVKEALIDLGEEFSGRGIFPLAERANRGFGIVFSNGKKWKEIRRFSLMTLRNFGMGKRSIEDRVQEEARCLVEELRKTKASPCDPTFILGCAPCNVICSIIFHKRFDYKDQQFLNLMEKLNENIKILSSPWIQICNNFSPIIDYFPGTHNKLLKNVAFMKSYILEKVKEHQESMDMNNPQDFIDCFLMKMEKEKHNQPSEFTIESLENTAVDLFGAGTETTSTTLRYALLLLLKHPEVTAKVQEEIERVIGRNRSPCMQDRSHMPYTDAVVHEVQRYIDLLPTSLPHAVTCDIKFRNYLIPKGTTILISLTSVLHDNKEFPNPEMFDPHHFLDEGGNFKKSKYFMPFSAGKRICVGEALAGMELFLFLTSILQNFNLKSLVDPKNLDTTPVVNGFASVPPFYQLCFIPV
# [31] = system: MDA-MB-468; experiment: MTT cell proliferation assay; format: cell-based; conditions: MDA-MB-468 (breast)
# [32] = system: RWPE-1 cells; experiment: MTT cell survival, near-normal prostate cells; format: cell-based; conditions: 0.5 mg/ml, 48h, pH 7.4, RWPE-1
# [33] = system: CFPAC; experiment: MTT cell proliferation assay; format: cell-based; conditions: CFPAC (pancreas)
# [34] = molecular target: CYP2D6 (Homo sapiens, UniProt P10635); experiment: Cytochrome P450 inhibition; format: biochemical; conditions: read-out: IC50 CYP2D6
# Sequence of CYP2D6 (P10635 whole entry): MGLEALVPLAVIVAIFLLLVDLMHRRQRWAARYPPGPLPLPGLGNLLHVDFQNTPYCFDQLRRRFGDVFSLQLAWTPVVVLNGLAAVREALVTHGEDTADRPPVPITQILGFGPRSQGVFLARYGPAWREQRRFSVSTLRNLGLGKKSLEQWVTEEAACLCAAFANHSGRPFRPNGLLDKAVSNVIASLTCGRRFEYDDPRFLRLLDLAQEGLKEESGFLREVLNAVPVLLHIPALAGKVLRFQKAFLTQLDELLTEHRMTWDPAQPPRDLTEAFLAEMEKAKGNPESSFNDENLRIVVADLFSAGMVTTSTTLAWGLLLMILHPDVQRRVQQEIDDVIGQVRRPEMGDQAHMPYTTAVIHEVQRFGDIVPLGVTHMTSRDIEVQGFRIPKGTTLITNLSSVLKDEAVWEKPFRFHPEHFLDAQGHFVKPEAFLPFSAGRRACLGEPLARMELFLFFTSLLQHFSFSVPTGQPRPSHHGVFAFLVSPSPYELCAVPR
# [35] = system: cancer cells of varying tissue-origin; experiment: Proliferation and colony formation, cancer cells of varying tissue-origin; format: cell-based
# [36] = format: in vivo, BALB/c mice
# [37] = Blood to plasma concentration ratio; format: in vitro ADME; conditions: BALB/c mice blood
# [38] = 40 mg/kg oral gavage, pH 5, 4 weeks
# [39] = after 4 weeks of 40 mg/kg oral Etn
structure (smiles),measurement,setting,value
"NCCO [Etn, monoethanolamine]",reduction in tumor volume,[1]; [38],~ 42%
same,reduction in tumor weight,[1]; [38],~ 29%
same,change in body weight over treatment course,"[1]; 40 mg/kg oral, 4 weeks, DU145 tumor bearing mice",no apparent change in body weight
same,acute toxicity,"[2]; single oral dose 5 g/kg (limit dose), male and female rats, monitored one week",does not induce any acute toxicity
same,survival after one week,"[2]; single oral dose 5 g/kg, five male and five female rats",all rats were alive
same,glucose content in cells versus control,[3],significantly reduced
same,glutamine content in cells versus control,[3],significantly reduced
same,pIC50,[4],< 4.00
same,Annexin-V positive cells upon treatment,[5],~ 25%
same,glucose content in tumors versus control,[6],significantly reduced
same,glutamine content in tumors versus control,[6],significantly reduced
same,reduction of cell survival,[7],30–52%
same,increase in p53 transcript levels compared to controls,[8],1.2 fold
same,pIC50,[9],< 4.00
same,pIC50,[10],< 4.00
same,reduction in tumor volume,"[11]; 40 mg/kg oral gavage, pH 5 (phosphoric acid), 4 weeks",~ 67%
same,reduction in tumor weight,[11]; [38],~ 55%
same,change in body weight over treatment course,"[11]; 40 mg/kg oral, 4 weeks, PC-3-luc tumor bearing mice",no apparent change in body weight
same,change in intratumoral Etn levels versus control mice,[11]; [39],did not observe any significant change
same,"intratumoral PhosE level, increase over control mice",[11]; [39],~ 38%
same,pIC50,[12],< 4.00
same,stability in SGF,[13],stable
same,pIC50,[14],< 4.00
same,reduction of OCR compared to controls,[15],~ 26%
same,Ki67-positive cells in treated tumors,[16],~ 40%
same,decrease in colony numbers,[17],~ 97%
same,stability in SIF,"[18]; SIF pH 6.8, over time (0-120 min), LC-MS/MS",remained unchanged
same,decrease in tumor volume,[19]; 40 mg/kg oral gavage,~ 44%
same,change in body weight over treatment course,"[19]; 40 mg/kg oral, HCT116 tumor bearing mice",no apparent change in body weight
same,reduction of cell survival,"[20]; 0.5 mg/ml, PC-3, 48h",~ 38%
same,reduction in cell proliferation,"[20]; 1 mg/ml Etn alone, PC-3, 48h",~ 33%
same,"half-maximal concentration (IC50), cell proliferation","[20]; PC-3, MTT, 48h",~ 0.88 mg/ml
same,Cmax of Etn relative to Cmax of PhosE,[21]; after oral Etn 40 mg/kg,32 fold
same,Cmax,[21]; after oral Etn 40 mg/kg,17370 ng/mL
same,time to reach peak plasma concentration,[21]; after oral Etn 40 mg/kg,10 min
same,Cmax,[21]; after oral PhosE 60 mg/kg,4320 ng/mL
same,increase of intracellular PhosE levels relative to control cells,[22],~ 40 fold
same,decrease in cell viability,[23],~ 11%
same,"IC50, cell proliferation",[24],290 µg/mL
same,pIC50,[25],< 4.00
same,reduction in HIF1-α transcripts levels compared to control cells,[26],50 fold
same,HIF1-α protein expression in treated versus control tumors,[27],downregulation
same,pIC50,[28]; read-out: IC50 CYP1A2,< 4.00
same,dependence of absorption on formulation pH or acid,[29],independent of pH
same,pIC50,[30],< 4.00
same,"IC50, cell proliferation",[31],550 µg/mL
same,effect on cell survival,[32],unaffected
same,"IC50, cell proliferation",[33],1900 µg/mL
same,pIC50,[34],< 4.00
"NCCOP(=O)(O)O [PhosE, phosphoethanolamine]",pIC50,[4],< 4.00
same,pIC50,[9],< 4.00
same,pIC50,[10],< 4.00
same,pIC50,[12],< 4.00
same,stability in SGF,[13],stable
same,pIC50,[14],< 4.00
same,inhibition of proliferation and colony formation,[35],ineffective
same,effect on colony numbers compared to control cells,[17],ineffective
same,decrease in concentration in SIF,"[18]; SIF pH 6.8, after 2h",~ 35%
same,volume of distribution (Vd),[36]; intravenous PhosE 3 mg/kg,4.82 L/kg
same,clearance (CL),"[36]; intravenous, Etn 2 mg/kg, PhosE 3 mg/kg",101.92 mL/min/kg
same,Cmax,[21]; after oral Etn 40 mg/kg,550 ng/mL
same,time to reach peak plasma concentration,[21]; after oral Etn 40 mg/kg,10 min
same,Cmax,[21]; after oral PhosE 60 mg/kg,1140 ng/mL
same,oral bioavailability,"[21]; oral Etn 40 mg/kg, PhosE 60 mg/kg vs intravenous 2 and 3 mg/kg",19%
same,increase of intracellular PhosE levels relative to control cells,[22],~ 15 fold
same,pIC50,[25],< 4.00
same,pIC50,[28],< 4.00
same,pIC50,[30],< 4.00
same,partitioning into RBCs (blood to plasma concentration ratio),[37],lack of preferential partitioning into RBCs
same,pIC50,[34],< 4.00
